From US20220281848A1, “PYRAZOLE-SUBSTITUTED PYRROLIDINONES AS HERBICIDES” (FMC Corporation, priority 2019, published 2022)

Test system: plants
Assay: Test D pre-emergence, other plants of Tables D1 and D3
Type: in vivo
Settings: for damage to plant (100=total damage to plant; 0=no damage to plant), SORVU: preemergent, 20 DAA; for damage to plant, ALOMY / damage to plant, AVEFA / damage to plant, BEAVA / damage to plant, BROTE / damage to plant, BRSNN / damage to plant, CHEAL / damage to plant, GALAP / damage to plant, HORVW / damage to plant, KCHSC / damage to plant, LOLPE / damage to plant, POAAN / damage to plant, POLCO / damage to plant, SINAR / damage to plant, STEME / damage to plant, VERPE: pre-emergence, 100=total damage, 0=no damage
How it was run: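 Seeds treated with herbicide safener; sown in soil; glasshouse, 16 h light, 65% humidity. Sprayed day 1 (pre) or ~day 12 (post). Spray in 0.2% v/v adjuvant. Scored 0–100 damage: 20 DAA pre, 15 d post.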

Compound: CCn1nc([C@@H]2CN(C)C(=O)[C@H]2C(=O)Nc2cccc(F)c2F)c2cccc(F)c21 [Compound 14]
- damage to plant (100=total damage to plant; 0=no damage to plant), SORVU (rate 130): 0
- damage to plant (100=total damage to plant; 0=no damage to plant), SORVU (rate 250): 0
- damage to plant (100=total damage to plant; 0=no damage to plant), SORVU (rate 500): 30
- damage to plant, ALOMY (rate 15, 20 DAA): 0
- damage to plant, AVEFA (rate 15, 20 DAA): 0
- damage to plant, BEAVA (rate 15, 20 DAA): 0
- damage to plant, BROTE (rate 15, 20 DAA): 0
- damage to plant, BRSNN (rate 15, 20 DAA): 0
- damage to plant, CHEAL (rate 15, 20 DAA): 0
- damage to plant, GALAP (rate 15, 20 DAA): 0
- damage to plant, HORVW (rate 15, 20 DAA): 0
- damage to plant, KCHSC (rate 15, 20 DAA): 0
- damage to plant, LOLPE (rate 15, 20 DAA): 0
- damage to plant, POAAN (rate 15, 20 DAA): 0
- damage to plant, POLCO (rate 15, 20 DAA): 0
- damage to plant, SINAR (rate 15, 20 DAA): 0
- damage to plant, STEME (rate 15, 20 DAA): 0
- damage to plant, VERPE (rate 15, 20 DAA): 0
- damage to plant, ALOMY (rate 30, 20 DAA): 0
- damage to plant, AVEFA (rate 30, 20 DAA): 0
- damage to plant, BEAVA (rate 30, 20 DAA): 0
- damage to plant, BROTE (rate 30, 20 DAA): 0
- damage to plant, BRSNN (rate 30, 20 DAA): 0
- damage to plant, CHEAL (rate 30, 20 DAA): 0
- damage to plant, GALAP (rate 30, 20 DAA): 0
- damage to plant, HORVW (rate 30, 20 DAA): 0
- damage to plant, KCHSC (rate 30, 20 DAA): 0
- damage to plant, LOLPE (rate 30, 20 DAA): 0
- damage to plant, POAAN (rate 30, 20 DAA): 0
- damage to plant, POLCO (rate 30, 20 DAA): 0
- damage to plant, SINAR (rate 30, 20 DAA): 0
- damage to plant, STEME (rate 30, 20 DAA): 0
- damage to plant, VERPE (rate 30, 20 DAA): 0
- damage to plant, ALOMY (rate 60, 20 DAA): 0
- damage to plant, AVEFA (rate 60, 20 DAA): 0
- damage to plant, BEAVA (rate 60, 20 DAA): 0
- damage to plant, BROTE (rate 60, 20 DAA): 0
- damage to plant, BRSNN (rate 60, 20 DAA): 0
- damage to plant, CHEAL (rate 60, 20 DAA): 0
- damage to plant, GALAP (rate 60, 20 DAA): 0
- damage to plant, HORVW (rate 60, 20 DAA): 0
- damage to plant, KCHSC (rate 60, 20 DAA): 0
- damage to plant, LOLPE (rate 60, 20 DAA): 30
- damage to plant, POAAN (rate 60, 20 DAA): 0
- damage to plant, POLCO (rate 60, 20 DAA): 10
- damage to plant, SINAR (rate 60, 20 DAA): 0
- damage to plant, STEME (rate 60, 20 DAA): 0
- damage to plant, VERPE (rate 60, 20 DAA): 0
- damage to plant, ALOMY (rate 130, 20 DAA): 0
- damage to plant, AVEFA (rate 130, 20 DAA): 10
- damage to plant, BEAVA (rate 130, 20 DAA): 0
- damage to plant, BROTE (rate 130, 20 DAA): 0
- damage to plant, BRSNN (rate 130, 20 DAA): 0
- damage to plant, CHEAL (rate 130, 20 DAA): 0
- damage to plant, GALAP (rate 130, 20 DAA): 0
- damage to plant, HORVW (rate 130, 20 DAA): 10
- damage to plant, KCHSC (rate 130, 20 DAA): 0
- damage to plant, LOLPE (rate 130, 20 DAA): 40
- damage to plant, POAAN (rate 130, 20 DAA): 20
- damage to plant, POLCO (rate 130, 20 DAA): 20
- damage to plant, SINAR (rate 130, 20 DAA): 0
- damage to plant, STEME (rate 130, 20 DAA): 0
- damage to plant, VERPE (rate 130, 20 DAA): 0
- damage to plant, ALOMY (rate 250, 20 DAA): 10
- damage to plant, AVEFA (rate 250, 20 DAA): 30
- damage to plant, BEAVA (rate 250, 20 DAA): 0
- damage to plant, BROTE (rate 250, 20 DAA): 10
- damage to plant, BRSNN (rate 250, 20 DAA): 0
- damage to plant, CHEAL (rate 250, 20 DAA): 0
- damage to plant, GALAP (rate 250, 20 DAA): 0
- damage to plant, HORVW (rate 250, 20 DAA): 60
- damage to plant, KCHSC (rate 250, 20 DAA): 0
- damage to plant, LOLPE (rate 250, 20 DAA): 50
- damage to plant, POAAN (rate 250, 20 DAA): 80
- damage to plant, POLCO (rate 250, 20 DAA): 50
- damage to plant, SINAR (rate 250, 20 DAA): 0
- damage to plant, STEME (rate 250, 20 DAA): 10
- damage to plant, VERPE (rate 250, 20 DAA): 0
- damage to plant, ALOMY (rate 500, 20 DAA): 70
- damage to plant, AVEFA (rate 500, 20 DAA): 60
- damage to plant, BEAVA (rate 500, 20 DAA): 10
- damage to plant, BROTE (rate 500, 20 DAA): 50
- damage to plant, BRSNN (rate 500, 20 DAA): 10
- damage to plant, CHEAL (rate 500, 20 DAA): 50
- damage to plant, GALAP (rate 500, 20 DAA): 0
- damage to plant, HORVW (rate 500, 20 DAA): 90
- damage to plant, KCHSC (rate 500, 20 DAA): 0
- damage to plant, LOLPE (rate 500, 20 DAA): 80
- damage to plant, POAAN (rate 500, 20 DAA): 80
- damage to plant, POLCO (rate 500, 20 DAA): 80
- damage to plant, SINAR (rate 500, 20 DAA): 0
- damage to plant, STEME (rate 500, 20 DAA): 60
- damage to plant, VERPE (rate 500, 20 DAA): 20
